Assay results reported in BigSolDB 2.1.

CCCCc1oc2ccc(NS(C)(=O)=O)cc2c1C(=O)c1ccc(OCCCN(CCCC)CCCC)cc1.Cl
solubility (mole fraction)
Settings | in ethanol | in isopropanol | in methanol | in n-butanol | in n-propanol | in water
298.15 K | 0.00418 | 0.000681 | 0.0556 | 0.00177 | 0.00275 | 2.71e-05
303.15 K | 0.00461 | 0.000838 | 0.0592 | 0.00209 | 0.00353 | 2.73e-05
308.15 K | 0.00535 | 0.00106 | 0.061 | 0.00261 | 0.00433 | 3.09e-05
313.15 K | 0.00818 | 0.00119 | 0.077 | 0.00352 | 0.00563 | 3.57e-05
318.15 K | 0.0159 | 0.00185 | 0.0919 | 0.00509 | 0.00892 | 4.49e-05
323.15 K | 0.0362 | 0.00293 | 0.119 | 0.00805 | 0.0159 | 6.11e-05
